According to PubChem BioAssay AID330 (DTP/NCI, 2004):
Values joined by “and” are separate entries in the source; they are usually repeats but may differ in a detail not shown here. Equal values may be shown once. Inconclusive results and toxic doses are left out. Rule for the calls: active = survival T/C of 150% or more; inactive = T/C below 125% in these data.

Tested on: P388 leukemia ip, CD2F1 mice, survival T/C
Experiment: NCI In Vivo Anticancer Drug Screen. Data for tumor model P388 Leukemia (intraperitoneal) in CD2F1 (CDF1) mice
Settings: endpoint: median survival time, higher = longer survival
Method: The antitumor activity of compounds was measured in mice bearing transplantable tumors. Survival or tumor size were measured and the results are expressed as the measurement made in the treated group (T) divided by the measurement made in the vehicle treated control group (C). The tumor model used in this assay is P388 Leukemia (intraperitoneal) in CD2F1 (CDF1) mice

[1] = dose: 100.0 mg/kg/injection, schedule: Q04DX002 (ip), vehicle: Klucel (hydroxypropylcellulose) (HPC)
[2] = dose: 200.0 mg/kg/injection, schedule: Q04DX002 (ip), vehicle: Klucel (hydroxypropylcellulose) (HPC)
[3] = dose: 400.0 mg/kg/injection, schedule: Q04DX002 (ip), vehicle: Klucel (hydroxypropylcellulose) (HPC)
[4] = dose: 12.5 mg/kg/injection, schedule: Q01DX009 (ip), vehicle: saline
[5] = dose: 25.0 mg/kg/injection, schedule: Q01DX009 (ip), vehicle: saline
[6] = dose: 50.0 mg/kg/injection, schedule: Q01DX005 (ip), vehicle: saline with Tween-80
[7] = dose: 100.0 mg/kg/injection, schedule: Q01DX005 (ip), vehicle: saline with Tween-80
[8] = dose: 200.0 mg/kg/injection, schedule: Q01DX005 (ip), vehicle: saline with Tween-80

Measured: T/C

Cn1cnc2cc(Cl)c([N+](=O)[O-])cc2c1=O
inactive: [1] 102 % of control | [2] 110 % of control | [3] 102 % of control

CCC[CH2][Sn](=[S])[CH2]CCC
inactive: dose: 1.56 mg/kg/injection, schedule: Q01DX009 (ip), vehicle: other 116 % of control

C[As](C)SCC(NC(=O)CCC(N)C(=O)O)C(=O)NCC(=O)O (configuration not stated)
inactive: [4] 104 % of control | [5] 109 % of control | dose: 200.0 mg/kg/injection, schedule: Q01DX009 (ip), vehicle: saline 97 % of control

COc1cc(C(=O)c2c(OC)cccc2C(=O)O)c(OC)cc1C
inactive: dose: 25.0 mg/kg/injection, schedule: Q01DX009 (ip), vehicle: saline with Tween-80 101 % of control | dose: 50.0 mg/kg/injection, schedule: Q01DX009 (ip), vehicle: saline with Tween-80 105 % of control | dose: 100.0 mg/kg/injection, schedule: Q01DX009 (ip), vehicle: saline with Tween-80 110 % of control | dose: 200.0 mg/kg/injection, schedule: Q01DX009 (ip), vehicle: saline with Tween-80 99 % of control | dose: 400.0 mg/kg/injection, schedule: Q01DX009 (ip), vehicle: saline with Tween-80 99 % of control

Cc1nc2ccc(O)cc2c(C(=O)O)c1C(=O)O
inactive: [6] 100 % of control | [7] 96 % of control | [8] 104 % of control

O=C1CCC(Cc2ccc(I)cc2)C(=O)N1 (configuration not stated)
inactive: dose: 100.0 mg/kg/injection, schedule: Q01DX001 (ip), vehicle: saline with Tween-80 101 % of control | dose: 200.0 mg/kg/injection, schedule: Q01DX001 (ip), vehicle: saline with Tween-80 100 % of control | dose: 400.0 mg/kg/injection, schedule: Q01DX001 (ip), vehicle: saline with Tween-80 95 % of control

CN1C(=O)N(C)[C@@H]2CC(=O)c3ccc(C(F)(F)F)cc3N2C1=O
inactive: dose: 60.0 mg/kg/injection, schedule: Q01DX005 (ip), vehicle: Klucel (hydroxypropylcellulose) (HPC) 101 % of control | dose: 120.0 mg/kg/injection, schedule: Q01DX005 (ip), vehicle: Klucel (hydroxypropylcellulose) (HPC) 107 % of control | dose: 240.0 mg/kg/injection, schedule: Q01DX005 (ip), vehicle: Klucel (hydroxypropylcellulose) (HPC) 103 % of control

CCOC(=O)C1CCC(=O)N1Cc1c[nH]c2ccccc12 (configuration not stated)
inactive: dose: 60.0 mg/kg/injection, schedule: Q01DX005 (ip), vehicle: saline with Tween-80 92 % of control | dose: 120.0 mg/kg/injection, schedule: Q01DX005 (ip), vehicle: saline with Tween-80 94 % of control | dose: 240.0 mg/kg/injection, schedule: Q01DX005 (ip), vehicle: saline with Tween-80 94 % of control

CS(C)(=O)=Nc1ccc(I)cc1
inactive: dose: 50.0 mg/kg/injection, schedule: Q04DX002 (ip), vehicle: Klucel (hydroxypropylcellulose) (HPC) 105 % of control | [1] 102 % of control and 104 % of control and 105 % of control | dose: 100.0 mg/kg/injection, schedule: Q04DX003 (ip), vehicle: saline 98 % of control | [2] 101 % of control and 113 % of control and 119 % of control | dose: 200.0 mg/kg/injection, schedule: Q04DX003 (ip), vehicle: saline 100 % of control | [3] 101 % of control and 105 % of control and 120 % of control | dose: 400.0 mg/kg/injection, schedule: Q04DX003 (ip), vehicle: saline 94 % of control

CC(=O)OC1CC(O)CC2=CCC3C4CCC(C(C)(O)C(O)CC5COC(=O)C5C)C4(C)CCC3C21C (configuration not stated)
inactive: dose: 4.0 mg/kg/injection, schedule: Q01DX005 (ip), vehicle: distilled water + Tween-80 96 % of control | dose: 8.0 mg/kg/injection, schedule: Q01DX005 (ip), vehicle: distilled water + Tween-80 95 % of control | dose: 16.0 mg/kg/injection, schedule: Q01DX005 (ip), vehicle: distilled water + Tween-80 96 % of control | dose: 32.0 mg/kg/injection, schedule: Q01DX005 (ip), vehicle: distilled water + Tween-80 91 % of control and 97 % of control | dose: 64.0 mg/kg/injection, schedule: Q01DX005 (ip), vehicle: distilled water + Tween-80 87 % of control and 94 % of control

CC(c1ccc(N2Cc3ccccc3C2=O)cc1)C(O)C(N)=O (configuration not stated)
inactive: [6] 89 % of control | [7] 92 % of control | [8] 89 % of control

c1coc(CNC2=NCCCCC2)c1
inactive: [4] 108 % of control | [5] 108 % of control | dose: 50.0 mg/kg/injection, schedule: Q01DX009 (ip), vehicle: saline 102 % of control
